What was measured:
TYRO3 = biological target: T1, TYRO3 (Homo sapiens, UniProt Q06418); experiment: TR-FRET kinase activity assay, TYRO3; assay type: biochemical; details: ATP at Km, 60 minutes
T1 sequence (Q06418 41-890): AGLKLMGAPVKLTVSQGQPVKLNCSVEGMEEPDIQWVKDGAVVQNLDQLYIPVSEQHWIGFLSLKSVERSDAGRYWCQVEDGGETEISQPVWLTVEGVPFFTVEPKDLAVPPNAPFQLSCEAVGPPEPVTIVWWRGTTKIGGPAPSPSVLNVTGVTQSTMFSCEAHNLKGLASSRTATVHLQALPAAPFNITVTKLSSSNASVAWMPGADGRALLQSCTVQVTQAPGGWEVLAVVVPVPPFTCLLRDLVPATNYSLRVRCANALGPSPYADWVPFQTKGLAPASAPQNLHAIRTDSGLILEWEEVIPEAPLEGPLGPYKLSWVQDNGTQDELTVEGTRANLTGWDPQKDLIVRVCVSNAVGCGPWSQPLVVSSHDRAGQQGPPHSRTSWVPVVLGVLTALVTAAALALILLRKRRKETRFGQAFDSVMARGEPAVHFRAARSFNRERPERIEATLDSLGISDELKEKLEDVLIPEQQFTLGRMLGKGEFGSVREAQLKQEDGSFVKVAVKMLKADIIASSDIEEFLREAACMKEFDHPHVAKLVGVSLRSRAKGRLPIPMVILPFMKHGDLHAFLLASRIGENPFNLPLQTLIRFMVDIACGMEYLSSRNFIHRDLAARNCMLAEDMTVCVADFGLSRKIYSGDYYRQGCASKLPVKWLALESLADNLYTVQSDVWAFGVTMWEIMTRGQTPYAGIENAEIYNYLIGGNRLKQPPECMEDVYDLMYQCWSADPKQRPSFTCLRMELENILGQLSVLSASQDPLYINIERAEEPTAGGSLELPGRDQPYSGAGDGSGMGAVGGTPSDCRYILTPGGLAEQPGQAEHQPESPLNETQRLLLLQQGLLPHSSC
In short: (§1)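 Compounds were tested against each kinase with ATP set at its own Km and a labelled tyrosine peptide substrate. Following one hour at room temperature in buffer containing 10 mM MgCl2 and 1 mM DTT, phosphorylated product was detected by Europium antibody TR-FRET after EDTA quench, and IC50 values were calculated.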

FLT3 = biological target: T2, FLT3 (Homo sapiens, UniProt P36888); experiment: TR-FRET kinase activity assay, FLT3; assay type: biochemical; details: ATP at Km, 60 minutes
T2 sequence (P36888 27-993): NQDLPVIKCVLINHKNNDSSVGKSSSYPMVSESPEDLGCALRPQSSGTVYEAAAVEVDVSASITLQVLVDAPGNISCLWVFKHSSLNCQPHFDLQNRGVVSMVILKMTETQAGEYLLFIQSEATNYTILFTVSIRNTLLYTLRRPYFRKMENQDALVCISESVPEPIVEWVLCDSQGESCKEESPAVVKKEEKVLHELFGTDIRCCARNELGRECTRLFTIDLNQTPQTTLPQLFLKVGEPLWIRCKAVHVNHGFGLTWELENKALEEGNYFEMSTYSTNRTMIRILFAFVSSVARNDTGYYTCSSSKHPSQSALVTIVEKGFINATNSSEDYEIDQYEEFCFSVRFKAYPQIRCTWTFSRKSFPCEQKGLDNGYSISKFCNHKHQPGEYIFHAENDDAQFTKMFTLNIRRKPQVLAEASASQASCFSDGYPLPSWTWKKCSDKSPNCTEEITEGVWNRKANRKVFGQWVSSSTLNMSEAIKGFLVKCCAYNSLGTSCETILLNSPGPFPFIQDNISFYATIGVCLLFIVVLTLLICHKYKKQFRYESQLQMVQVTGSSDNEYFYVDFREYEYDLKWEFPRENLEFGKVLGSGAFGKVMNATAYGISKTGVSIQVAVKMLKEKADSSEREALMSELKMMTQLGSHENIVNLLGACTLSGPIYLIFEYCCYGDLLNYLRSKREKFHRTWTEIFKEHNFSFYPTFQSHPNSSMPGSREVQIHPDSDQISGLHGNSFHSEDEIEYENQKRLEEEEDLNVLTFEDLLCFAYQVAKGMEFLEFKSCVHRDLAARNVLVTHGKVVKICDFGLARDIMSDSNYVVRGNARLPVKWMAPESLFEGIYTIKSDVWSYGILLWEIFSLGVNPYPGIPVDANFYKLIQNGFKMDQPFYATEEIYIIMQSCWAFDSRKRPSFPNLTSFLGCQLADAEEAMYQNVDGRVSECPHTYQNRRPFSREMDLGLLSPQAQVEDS
In short: as §1

Compound | IC50 (TYRO3) [nM] | IC50 (FLT3) [nM]
CC[C@H](C)Nc1ncc2c(C3CCN(c4nccc(C)n4)CC3)cc([C@H]3CC[C@H](O)CC3)n2n1 [Compound 136, (trans)-4-(2-((S)-sec-butylamino)-5-(1-(4-methylpyrimidin-2-yl)piperidin-4-yl)pyrrolo[2,1-f][1,2,4]triazin-7-yl)cyclohexanol] | 100 to 1000 | 1000 to 10000
COC[C@H](C)Nc1ncc2c(-c3cnn(C(C)(C)C(=O)N4CCCC5(COC5)C4)c3)cc([C@H]3CC[C@H](O)CC3)n2n1 [Compound 516] | ≤ 100 | 1000 to 10000
Cc1nnc(C(C)(C)n2cc(-c3cc([C@H]4CC[C@H](O)CC4)n4nc(N[C@@H](C)COC(F)F)ncc34)cn2)o1 [Compound 517] | ≤ 100 | 1000 to 10000
COC[C@H](C)Nc1ncc2c(-c3ccnc(N4CCc5cnn(C)c5C4)c3)cc([C@H]3CC[C@H](O)CC3)n2n1 [Compound 518] | ≤ 100 | 1000 to 10000
COC[C@H](C)Nc1ncc2c(-c3cnn(C4COC4)c3)cc(C3CCSCC3)n2n1 [Compound 522] | ≤ 100 | 100 to 1000
COC[C@H](C)Nc1ncc2c(-c3cnn(C4COC4)c3)cc(C3CCC(=O)NC3)n2n1 (stereo partly drawn) [Compound 526] | ≤ 100 | 1000 to 10000
C[C@@H](Nc1ncc2c(-c3cnn(C4COC4)c3)cc([C@H]3CC[C@H](O)CC3)n2n1)C(F)(F)F [Compound 527] | ≤ 100 | 100 to 1000
COC[C@H](C)Nc1ncc2c(-c3ccc([S@](C)(=N)=O)nc3)cc([C@H]3CC[C@H](O)CC3)n2n1 [Compound 532] | ≤ 100 | 1000 to 10000
COC[C@H](C)Nc1ncc2c(-c3ccc([S@@](C)(=N)=O)nc3)cc([C@H]3CC[C@H](O)CC3)n2n1 [Compound 533] | ≤ 100 | 1000 to 10000
COC[C@H](C)Nc1ncc2c(-c3ccnc(N4CCOC(C(C)(C)O)C4)c3)cc([C@H]3CC[C@H](O)CC3)n2n1 (stereo partly drawn) [Compound 534] | ≤ 100 | 100 to 1000
C[C@H](Nc1ncc2c(-c3cnn(C(C)(C)C(=O)N4CCOCC4)c3)cc([C@H]3CC[C@H](O)CC3)n2n1)C(F)(F)F [Compound 537] | ≤ 100 | 1000 to 10000
COCC(C)Nc1ncc2c(-c3ccc4cc[nH]c4c3)cc(C3CCC(O)CC3)n2n1 (stereo not drawn) [Compound 538] | ≤ 100 | 1000 to 10000
COCC(C)Nc1ncc2c(-c3ccc4[nH]ccc4c3)cc(C3CCC(O)CC3)n2n1 (stereo not drawn) [Compound 539] | ≤ 100 | 1000 to 10000
C[C@@H](CC(F)(F)F)Nc1ncc2c(-c3ccc([S@](C)(=N)=O)nc3)cc([C@H]3CC[C@H](O)CC3)n2n1 [Compound 540] | ≤ 100 | ≤ 100
C[C@@H](CC(F)(F)F)Nc1ncc2c(-c3ccc([S@@](C)(=N)=O)nc3)cc([C@H]3CC[C@H](O)CC3)n2n1 [Compound 541] | ≤ 100 | ≤ 100
CC(Nc1ncc2c(-c3cnn(C4COC4)c3)cc(C3CCC(O)CC3)n2n1)c1ccccn1 (stereo not drawn) [Compound 544] | ≤ 100 | 1000 to 10000
COC[C@H](C)Nc1ncc2c(-c3ccnc(N4CCOCC4)c3)cc([C@H]3CC[C@@H](O)CC3)n2n1 [Compound 546] | ≤ 100 | 100 to 1000
COC[C@H](C)Nc1ncc2c(-c3cnn(C(C)(C)C(=O)N4CCOCC4)c3)cc([C@H]3CC[C@@H](O)CC3)n2n1 [Compound 547] | ≤ 100 | 100 to 1000
COC[C@H](C)Nc1ncc2c(-c3ccnc(N4CCOCC4)c3)cc([C@H]3CC[C@@](C)(O)CC3)n2n1 [Compound 548] | ≤ 100 | 100 to 1000
COC[C@H](C)Nc1ncc2c(-c3ccnc(N4CCOCC4)c3)cc([C@H]3CC[C@](C)(O)CC3)n2n1 [Compound 549] | ≤ 100 | 100 to 1000
COCC(C)Nc1ncc2c(-c3ccc4ocnc4c3)cc(C3CCC(O)CC3)n2n1 (stereo not drawn) [Compound 550] | ≤ 100 | 100 to 1000

The remaining lines, values ahead:

IC50 (TYRO3) [nM] | IC50 (FLT3) [nM] | Compound
≤ 100 | 1000 to 10000 | COCC(C)Nc1ncc2c(-c3cnn(C4COC4)c3)cc(C3CCNC(=O)C3)n2n1 (mixture of isomers) [Compound 592]
≤ 100 | 100 to 1000 | CC(COc1ccccc1)Nc1ncc2c(-c3cnn(C4COC4)c3)cc([C@H]3CC[C@H](O)CC3)n2n1 (mixture of isomers) [Compound 528]
≤ 100 | ≤ 100 | CC(Cc1ccc(F)cc1)Nc1ncc2c(-c3cnn(C4COC4)c3)cc(C3CCC(O)CC3)n2n1 (racemic) [Compound 535]
≤ 100 | 1000 to 10000 | CC(Nc1ncc2c(-c3cnn(C4COC4)c3)cc(C3CCC(O)CC3)n2n1)c1cccnc1 (racemic) [Compound 536]
≤ 100 | 100 to 1000 | CC[C@H](C)Nc1ncc2c(C3CCNCC3)cc([C@H]3CC[C@H](O)CC3)n2n1 [Compound 135, (trans)-4-(2-((S)-sec-butylamino)-5-(piperidin-4-yl)pyrrolo[2,1-f][1,2,4]triazin-7-yl)cyclohexanol]
≤ 100 | 100 to 1000 | CCCCC[C@H](C)Nc1ncc2c([C@H]3CC[C@@H](C(=O)N4CCS(=O)(=O)CC4)CC3)cc([C@H]3CC[C@H](O)CC3)n2n1 [Compound 137]
≤ 100 | 100 to 1000 | CCOCC(C)Nc1ncc2c(-c3ccc(CN4CCN(C)CC4)cc3)cc(C3CCC(O)CC3)n2n1 (stereo not drawn) [Compound 138]
≤ 100 | 1000 to 10000 | COC[C@H](C)Nc1ncc2c(-c3ccc(C(=O)O)cc3)cc([C@H]3CC[C@H](O)CC3)n2n1 [Compound 139]
≤ 100 | 100 to 1000 | COC[C@H](C)Nc1ncc2c(-c3ccc(CN4CCOCC4)cc3)cc([C@H]3CC[C@H](O)CC3)n2n1 [Compound 140]
≤ 100 | 100 to 1000 | COC[C@H](C)Nc1ncc2c(C3=CCOCC3)cc([C@H]3CC[C@H](O)CC3)n2n1 [Compound 141]
≤ 100 | 100 to 1000 | COCC(C)Nc1ncc2c(-c3ccc(CN4CCCC4)cc3)cc(C3CCC(O)CC3)n2n1 (stereo not drawn) [Compound 142]
≤ 100 | ≤ 100 | COCC(C)Nc1ncc2c(-c3ccc(C(C)N4CCOCC4)cc3)cc(C3CCC(O)CC3)n2n1 (stereo not drawn) [Compound 143]
≤ 100 | 1000 to 10000 | C[C@H](Nc1ncc2c(-c3cnn(C4COC4)c3)cc([C@H]3CC[C@H](O)CC3)n2n1)C(F)(F)F [Compound 510]
≤ 100 | 100 to 1000 | COC[C@H](C)Nc1ncc2c(-c3cnn(C4COC4)c3)cc(-c3cccc(O)c3)n2n1 [Compound 511]
≤ 100 | 100 to 1000 | COC[C@H](C)Nc1ncc2c(-c3ccnc(N4CCN(CC5COC5)CC4)c3)cc([C@H]3CC[C@H](O)CC3)n2n1 [Compound 512]
≤ 100 | 100 to 1000 | C[C@@H](COC(F)F)Nc1ncc2c(-c3ccc(S(C)(=O)=O)nc3)cc([C@H]3CC[C@H](O)CC3)n2n1 [Compound 513]
≤ 100 | 1000 to 10000 | CCN(C(=O)N1CCN(c2cc(-c3cc([C@H]4CC[C@H](O)CC4)n4nc(N[C@@H](C)COC)ncc34)ccn2)CC1)C(C)C [Compound 514]
≤ 100 | 100 to 1000 | COC[C@H](C)Nc1ncc2c(-c3cnn(C4COC4)c3)cc(C3CCC(F)(F)CC3)n2n1 [Compound 515]

Source: US11040981B2, “Pyrrolotriazine compounds and methods of inhibiting TAM kinases” (Syros Pharmaceuticals, Inc., priority 2017, dated 2021)
